# Assay results from US10639295B2 (priority 2016, dated 2020).
# Read-outs that look alike come from different tables or passages of the source.
# Key:
# mouse melanoma B16 cells = assay type: in vivo, C57BL/6 mice; details: intravenous injection, equimolar to 5.00 mg/kg 4′-demethylepipodophyllotoxin; for curative effect on lung metastatic tumor: 22nd day after modeling; for tumor-bearing lung weight / number of lung metastasis tumor nodules: sacrificed on the 22nd day; for tumor-bearing lung weight: compared with control group (FIG. 3); for number of lung metastasis tumor nodules: compared with control group (FIG. 4)
# Experimental: The experiment was performed according to the method reported by Small, 2014(3):524-535. C57BL/6 mice (male, 20±2 g, 6 to 8 week-old) were used and intravenously injected with mouse melanoma B16 cells in logarithmic growth phase. 5×10^5 cells were injected into each mouse to establish a melanoma lung metastasis model, and the mice were randomly divided into 5 groups (recorded as the 0th day). The injections for intravenous injecting used in the experiment were prepared according to Example 6. On the 4th, 7th and 13th day after the modeling, each group was subjected to intravenous injection for […]. 4′-demethylepipodophyllotoxin was provided at a dosage of 5.00 mg/kg, and etoposide, compound DC and compound DP were provided at equimolar amount with 4′-demethylepipodophyllotoxin, and the administration dosages were etoposide 7.36 mg/kg, compound DC 7.89 mg/kg, and compound DP 7.69 mg/kg, respectively. The control group was administered with equal amount of solvent. All mice were housed normally and sacrificed on the 22nd day after modeling. The lung tissue was immediately separated out, washed with physiological saline and weighed, and the number of tumor nodules was calculated.
# [1] = for concentration in the lung compared with 4′-demethylepipodophyllotoxin original drug group and etoposide control group: 5 minutes after administration by tail intravenous injection (FIG. 1); for time for which a relatively high drug concentration in the lung lasted (retention time in the lung): after tail intravenous injection; for drug concentration in the lung compared with 4′-demethylepipodophyllotoxin original drug group and etoposide control group: at each time point after tail intravenous injection (FIG. 2); for lung relative uptake rate Re (AUC0-t,lung compound / AUC0-t,lung drug) / peak concentration ratio Ce in the lung (Cmax,lung compound / Cmax,lung drug): versus 4′-demethylepipodophyllotoxin original drug group; for lung relative uptake rate Re (AUC0-t,lung compound / AUC0-t,lung drug) / peak concentration ratio Ce in the lung (Cmax,lung compound / Cmax,lung drug) / lung relative uptake rate Re (AUC0-t,lung compound / AUC0-t,lung control) / peak concentration ratio Ce in the lung (Cmax,lung compound / Cmax,lung control): tail intravenous injection; for lung relative uptake rate Re (AUC0-t,lung compound / AUC0-t,lung drug) / lung relative uptake rate Re (AUC0-t,lung compound / AUC0-t,lung control) / peak concentration ratio Ce in the lung (Cmax,lung compound / Cmax,lung control): equimolar doses; for peak concentration ratio Ce in the lung (Cmax,lung compound / Cmax,lung drug): equimolar to 10.00 mg/kg 4′-demethylepipodophyllotoxin; for lung relative uptake rate Re (AUC0-t,lung compound / AUC0-t,lung control) / peak concentration ratio Ce in the lung (Cmax,lung compound / Cmax,lung control): versus etoposide control group
# Experimental: 16 mg of 4′-demethylepipodophyllotoxin was accurately weighed, 5% DMSO, 20% polyethylene glycol 400 and 20% absolute ethanol were added to help dissolution, so as to prepare an injection for intravenous injection with a concentration of 2 mg/mL. 28 mg of etoposide was accurately weighed, and 5% DMSO, 20% polyethylene glycol 400 and 20% absolute ethanol were added to help dissolution, so as to prepare an injection for intravenous injection with a concentration of 3.5 mg/mL. 30.40 mg of compound DC or DP was accurately weighed, and 5% DMSO, 20% polyethylene glycol 400 and 20% absolute ethanol were added to help dissolution, so as to prepare an injection for intravenous injection with a concentration of 3.8 mg/mL.
# 200 Kunming mice (male, 20±2 g) were used, which were fasted for 12 h before the experiment and given free access to water. In the experiment, they were randomly divided into 4 groups and administered by tail intravenous injection. The administration of 4′-demethylepipodophyllotoxin was carried out with a dosage of 10.00 mg/kg. Etoposide, compound DC and compound DP were administered in equimolar amount as 4′-demethylepipodophyllotoxin, and the administration dosages were etoposide 14.71 mg/kg, compound DC 15.78 mg/kg, and compound DP 15.38 mg/kg, respectively. 5 minutes, 15 minutes, 30 minutes, 1 hour, 2 hours, 4 hours, 8 hours, 12 hours, 24 hours and 48 hours after administration, the blood was collected and the mice sacrificed in all groups. The whole blood was put into sodium heparin-containing EP tubes, centrifuged at 5000 rpm at 4° C. for 5 min, and the upper plasma was collected and frozen at −40° C. for use. The hearts, livers, spleens, lungs, kidneys, brains and pancreas of the mice were immediately separated, and the residual blood was washed away with physiological saline. The remaining water on the surfaces of the organs was absorbed with filter papers. The organs were weighed and physiological saline 2 times the volume of the organs was added for homogenization.
# 0.1 mL of mouse plasma and 0.1 mL of tissue homogenate were taken and put into a 0.5 mL EP tube, 0.3 mL of methanol was added to all the samples as a protein precipitant. The sample was subjected to vortex vibration for 5 minutes, and then centrifuged at 13000 rpm at 4° C. for 10 min. The supernatant was taken and filtered with a 0.22 μm organic filtration membrane, and 1 μL of the sample was taken and subjected to LC-MS/MS analysis.
# LC-MS/MS Analysis Condition
# Liquid phase conditions: Agilent 1200 Series High Resolution Rapid LC System (RRLC); chromatographic column: Agilent Diamonsil ODS column (50 mm×4.6 mm, 1.8 μm); mobile phase: for 4′-demethylepipodophyllotoxin, methanol:0.1% formic acid aqueous solution=50:50, for etoposide, acetonitrile:0.1% formic acid aqueous solution=35:65, for compound DC, methanol:0.1% formic acid aqueous solution=[…], and for compound DP, methanol:0.1% formic acid aqueous solution=34:66; flow rate: 0.4 mL/min; column temperature: 30° C.; and injection volume: 1 μL.
# Mass spectra conditions: Agilent Triple Quadrupole Mass Spectrometry (6410B); the analytes were subjected to a multiple reaction monitoring (MRM) in positive mode: for 4′-demethylepipodophyllotoxin, etoposide, compound DC and compound DP, fragmentation voltages were 97 V, 148 V, 190 V and 169 V, respectively; collision cell voltages were 20 V, 12 V, 52 V and 36 V, respectively; and ionic reactions (m/z) were 401.1→185, 589.2→229, 632.3→86.1 and 616.3→58.1, respectively; drying gas temperature: 350° C.; drying gas flow rate: 10 L/min; atomization air pressure: 30 psi; and the capillary voltage: 4000V.
# Each pharmacokinetic parameters were calculated by DAS3.2.5 software, and the formula for calculating the targeting ability evaluation index, i.e., peak concentration ratio Ce and relative uptake rate Re, were shown hereinafter. Celung=(Cmax,lung)compound/(Cmax,lung)drug or control Relung=(AUC0-t,lung)compound/(AUC0-t,lung)drug or control
compound,measurement,setting,value
"COc1cc(C2c3cc4c(cc3C(O)C3COC(=O)C23)OCO4)cc(OC)c1O (stereo not shown) [4′-demethylepipodophyllotoxin, reference compound]",curative effect on lung metastatic tumor,mouse melanoma B16 cells,improved the lung metastatic tumor to a certain degree
same,tumor-bearing lung weight,mouse melanoma B16 cells,reduced the tumor-bearing lung weight
same,number of lung metastasis tumor nodules,mouse melanoma B16 cells,decreases the number of lung metastasis tumor nodules
same,concentration in the lung,"[1]; one hour after the administration, tail intravenous injection 10.00 mg/kg",below the detectable limit
COc1cc([C@@H]2c3cc4c(cc3[C@@H](NC(=O)c3ccc(CN5CCN(C)CC5)cc3)[C@H]3COC(=O)[C@H]23)OCO4)cc(OC)c1O [compound DP],curative effect on lung metastatic tumor,mouse melanoma B16 cells,best curative effects
same,tumor-bearing lung weight,mouse melanoma B16 cells,least
same,number of lung metastasis tumor nodules,mouse melanoma B16 cells,least
same,concentration in the lung compared with 4′-demethylepipodophyllotoxin original drug group and etoposide control group,[1],much higher
same,time for which a relatively high drug concentration in the lung lasted (retention time in the lung),[1],≤ 12 h
same,drug concentration in the lung compared with 4′-demethylepipodophyllotoxin original drug group and etoposide control group,[1],much higher
same,"lung relative uptake rate Re (AUC0-t,lung compound / AUC0-t,lung drug)",[1],42.56 times
same,"peak concentration ratio Ce in the lung (Cmax,lung compound / Cmax,lung drug)",[1],5.41 times
same,"lung relative uptake rate Re (AUC0-t,lung compound / AUC0-t,lung control)",[1],24.81 times
same,"peak concentration ratio Ce in the lung (Cmax,lung compound / Cmax,lung control)",[1],4.65 times
"COc1cc([C@@H]2c3cc4c(cc3[C@@H](O[C@@H]3O[C@@H]5CO[C@@H](C)O[C@H]5[C@H](O)[C@H]3O)[C@H]3COC(=O)[C@H]23)OCO4)cc(OC)c1O [etoposide, reference compound]",curative effect on lung metastatic tumor,mouse melanoma B16 cells,improved the lung metastatic tumor to a certain degree
same,tumor-bearing lung weight,mouse melanoma B16 cells,reduced the tumor-bearing lung weight
same,number of lung metastasis tumor nodules,mouse melanoma B16 cells,decreases the number of lung metastasis tumor nodules
same,concentration in the lung,"[1]; mouse, in vivo, iv, 14.71 mg/kg",below the detectable limit
COc1cc([C@@H]2c3cc4c(cc3[C@@H](NC(=O)c3ccc(CN(C)CCCN(C)C)cc3)[C@H]3COC(=O)[C@H]23)OCO4)cc(OC)c1O [compound DC],curative effect on lung metastatic tumor,mouse melanoma B16 cells,best curative effects
same,tumor-bearing lung weight,mouse melanoma B16 cells,least
same,number of lung metastasis tumor nodules,mouse melanoma B16 cells,least
same,concentration in the lung compared with 4′-demethylepipodophyllotoxin original drug group and etoposide control group,[1],much higher
same,time for which a relatively high drug concentration in the lung lasted (retention time in the lung),[1],up to 48 hours
same,drug concentration in the lung compared with 4′-demethylepipodophyllotoxin original drug group and etoposide control group,[1],much higher
same,"lung relative uptake rate Re (AUC0-t,lung compound / AUC0-t,lung drug)",[1],168.38 times
same,"peak concentration ratio Ce in the lung (Cmax,lung compound / Cmax,lung drug)",[1],5.29 times
same,"lung relative uptake rate Re (AUC0-t,lung compound / AUC0-t,lung control)",[1],98.16 times
same,"peak concentration ratio Ce in the lung (Cmax,lung compound / Cmax,lung control)",[1],4.54 times
